Measurements as given in paper PMC3541179, “Structural Insights into the Dual Strategy of Recognition by Peptidoglycan Recognition Protein, PGRP-S: Structure of the Ternary Complex of PGRP-S with Lipopolysaccharide and Stearic Acid” (PLoS ONE, 2013).

Molecular target: T1, CPGRP-S (camel short peptidoglycan recognition protein, PGRP-S) (Camelus dromedarius, UniProt Q9GK12)
T1 construct: gene PGLYRP1; native, purified from camel milk; full mature chain, residues 1-171, about 19-20 kDa; A-B and C-D contacts forming a linear polymer, 4 molecules in the asymmetric unit
Experiment: X-ray crystallography (soaked crystals, […] A); SPR on immobilized protein also shows binding
Details: ternary complex with LPS at Site-1 (C-D contact); SA at Site-2 (A-B contact); crystals soaked in 70% reservoir solution and 30% ethanol
Description: (camel short peptidoglycan recognition protein, PGRP-S) | SA is placed in the cleft at the A-B contact

T1 sequence (Q9GK12 23-193): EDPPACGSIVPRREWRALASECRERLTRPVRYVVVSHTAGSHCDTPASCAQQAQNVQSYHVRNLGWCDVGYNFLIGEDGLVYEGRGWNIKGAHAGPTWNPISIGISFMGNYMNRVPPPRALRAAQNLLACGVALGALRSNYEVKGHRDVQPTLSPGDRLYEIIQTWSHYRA

## CCCCCCCCCCCCCCCCCC(=O)O [SA, stearic acid]
  X-ray crystallography (soaked crystals, 2.8 A); SPR on immobilized protein also: SA is placed in the cleft at the A–B contact
